Results from PubChem BioAssay AID2060884 (Molecular Pharmacology Branch, DTP, NCI, 2025).

Test system: NCI-H929 complex spheroids, viability % test/control
Assay: Anticancer human tumor NCI-H929 cell line growth inhibition [RAS];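 also: compound exposure lasted seven days before viability was read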
Settings: for viability, T/C: stronger effect = lower value
Description: RAS pathway inhibitors in Combinations in Complex Spheroids
A high-throughput screen of multi-cell type tumor spheroids was designed to identify active combinations of RAS pathway inhibitors and targeted small molecules. Complex spheroids include a stromal component modeled by human endothelial cells (HUVEC) and fibroblasts modeled by human mesenchymal stem cells (MSCs). The concentration ranges selected for each drug and investigational agent were based upon clinically achievable concentrations if the clinical Cmax of the agent was known.
Compounds. The drugs and investigational agents: abemaciclib (NSC768073), cobimetinib (NSC768068), divarasib (GDC6063, NSC841802), docetaxel (NSC628503), GDC-1971 (RLY-1971, NSC841576), gemcitabine (NSC613327), inavolisib (NSC800729), ipatasertib (NSC767898), KB-0742 (NSC834161), MRTX-1133 (NSC836407), osimertinib (NSC779217), RMC-4630 (NSC839698), RMC-6236 (NSC851965), RMC-6291 (NSC852671), Ro-3306 (NSC812927), sapanisertib (NSC764658), SN-38 (NSC673596), staurosporine (NSC755774), SY5609 (NSC837396), and tovorafenib (DAY101, NSC766906), were obtained from the National Cancer Institute (NCI) Developmental Therapeutics Program Chemical Repository. The FDA-approved anticancer drug set is available from the NCI Developmental Therapeutics Program. […] The stock solutions were prepared in dimethyl sulfoxide (DMSO, Sigma-Aldrich, St. Louis, MO, cat. D2650) at 800-fold the tested concentration and stored at -70 degrees C prior to their use. All drugs and investigational agents were tested over a range starting from a high concentration at or near the clinical Cmax and decreasing in half-log increments. If the clinical Cmax for an agent had not been determined, the highest concentration tested was 10 microM.
Cell Culture. All cells were maintained in an incubator at 37 degrees C and 5% CO2 with 95% humidity. The PDC lines were cultured according to standard operating procedures established by the NCI PDMR. All PDCs were thawed and cultured in Matrigel-coated flasks prepared with a working solution of 1X Ham's F-12 nutrient mix, without supplementation (Invitrogen, Waltham, MA, cat. 11765054), 100 U/mL penicillin-streptomycin (Invitrogen, cat. 15140122), and 2.5% Matrigel (Corning Inc., Corning, NY, cat. 354248) for the first three passages. The 362531-283-R-J2-PDC and 782815-120-R-J1-PDC lines were cultured in 6C/Colon 1B media, which includes advanced DMEM/F-12 (Thermo Fisher Scientific, cat. 12634028), 10 mM HEPES (Thermo Fisher Scientific, cat. 15630080), 1X GlutaMAX supplement (Thermo Fisher Scientific, cat. 35050061), 0.1 mg/mL primocin (InvivoGen, San Diego, CA, cat. ant-pm-2), 10% defined fetal bovine serum, heat inactivated (HyClone Laboratories Inc., Logan, UT, cat. SH30070.03HI), 50% L-WRN conditioned media (ATCC, cat. CRL-3276), 1.25 mM N-Acetyl-L-cysteine (Sigma-Aldrich, cat. A9165), 10 mM nicotinamide (Sigma-Aldrich, cat. N0636), 1X B-27 supplement (Thermo Fisher Scientific, cat. 17504044), 1X N-2 supplement (Thermo Fisher Scientific, cat. 17502048), 50 ng/mL human EGF (Thermo Fisher Scientific, cat. PHG0311), and 10 microM Y-27632 dihydrochloride (Tocris Bioscience, cat. 1254). The K12877-001-R-J1-PDC line was cultured in 6I media, which includes all 6C/Colon 1B media plus 10 ng/mL human FGF-10 (PeproTech, cat. 100-26), 1 ng/mL human FGF-2 (PeproTech, cat. 100-18B), 1 µM prostaglandin E2 (Tocris Bioscience, cat. 2296), […] hydrocortisone (Sigma-Aldrich, cat. H4001), and […] bovine insulin (Sigma-Aldrich, cat. I6634). The K86415-001-R-J1-PDC line was cultured in 6D media, which includes all 6C/Colon 1B media components minus the L-WRN conditioned media. The 485176-168-R4-J1-PDC was cultured in PANC media, which includes all 6C/Colon 1B media plus 100 ng/mL human FGF-10 (PeproTech, cat. 100-26), 500 nM SB-431542 (Selleckchem, cat. S1067), and 10 nM gastrin (Tocris Bioscience, cat. 3006). […]

## CC(C)NCC(C(=O)N1CCN(c2ncnc3c2C(C)CC3O)CC1)c1ccc(Cl)cc1 (centres undefined) + C#Cc1c(F)ccc2cc(O)cc(-c3ncc4c(N5CC6CCC(C5)N6)nc(OCC56CCCN5CC(F)C6)nc4c3F)c12
Curve of first compound, second compound 0.0316 µM
  IC50: 4.58 µM
Curve of first compound, second compound 0.1 µM
  IC50: 3.05 µM
Curve of first compound, second compound 0.316 µM
  IC50: 3.32 µM
Curve of first compound, second compound 1 µM
  IC50: 3.81 µM
Curve of first compound, second compound 3.16 µM
  IC50: 2.83 µM
Curve of first compound, second compound 10 µM
  IC50: 1.59 µM
Second compound 0.0316 µM, first compound 0.0316 µM
  viability, T/C: 105%
Second compound 0.0316 µM, first compound 0.1 µM
  viability, T/C: 105%
Second compound 0.0316 µM, first compound 0.316 µM
  viability, T/C: 111%
Second compound 0.0316 µM, first compound 1 µM
  viability, T/C: 102%
Second compound 0.0316 µM, first compound 3.16 µM
  viability, T/C: 66%
Second compound 0.0316 µM, first compound 10 µM
  viability, T/C: 16.3%
Second compound 0.1 µM, first compound 0.0316 µM
  viability, T/C: 96.9%
Second compound 0.1 µM, first compound 0.1 µM
  viability, T/C: 105%
Second compound 0.1 µM, first compound 0.316 µM
  viability, T/C: 109%
Second compound 0.1 µM, first compound 1 µM
  viability, T/C: 104%
Second compound 0.1 µM, first compound 3.16 µM
  viability, T/C: 48.3%
Second compound 0.1 µM, first compound 10 µM
  viability, T/C: 14.1%
Second compound 0.316 µM, first compound 0.0316 µM
  viability, T/C: 96.2%
Second compound 0.316 µM, first compound 0.1 µM
  viability, T/C: 101%
Second compound 0.316 µM, first compound 0.316 µM
  viability, T/C: 108%
Second compound 0.316 µM, first compound 1 µM
  viability, T/C: 106%
Second compound 0.316 µM, first compound 3.16 µM
  viability, T/C: 51.6%
Second compound 0.316 µM, first compound 10 µM
  viability, T/C: 13.6%
Second compound 1 µM, first compound 0.0316 µM
  viability, T/C: 98.4%
Second compound 1 µM, first compound 0.1 µM
  viability, T/C: 101%
Second compound 1 µM, first compound 0.316 µM
  viability, T/C: 108%
Second compound 1 µM, first compound 1 µM
  viability, T/C: 108%
Second compound 1 µM, first compound 3.16 µM
  viability, T/C: 58%
Second compound 1 µM, first compound 10 µM
  viability, T/C: 7.88%
Second compound 3.16 µM, first compound 0.0316 µM
  viability, T/C: 97.7%
Second compound 3.16 µM, first compound 0.1 µM
  viability, T/C: 103%
Second compound 3.16 µM, first compound 0.316 µM
  viability, T/C: 107%
Second compound 3.16 µM, first compound 1 µM
  viability, T/C: 106%
Second compound 3.16 µM, first compound 3.16 µM
  viability, T/C: 44.2%
Second compound 3.16 µM, first compound 10 µM
  viability, T/C: 9.12%
Second compound 10 µM, first compound 0.0316 µM
  viability, T/C: 94.2%
Second compound 10 µM, first compound 0.1 µM
  viability, T/C: 92.1%
Second compound 10 µM, first compound 0.316 µM
  viability, T/C: 101%
Second compound 10 µM, first compound 1 µM
  viability, T/C: 67.5%
Second compound 10 µM, first compound 3.16 µM
  viability, T/C: 21.9%
Second compound 10 µM, first compound 10 µM
  viability, T/C: 2.52%

## NC1c2ccccc2OC12CCN(c1cnc3c(N4CCCc5ncccc54)n[nH]c3n1)CC2 (centres undefined)
Compound 0.0316 µM
  viability, T/C: 104% [middle of 4 runs]
Compound 0.1 µM
  viability, T/C: 99.1% [middle of 4 runs]
Compound 0.316 µM
  viability, T/C: 104% [middle of 4 runs]
Compound 1 µM
  viability, T/C: 102% [middle of 4 runs]
Compound 3.16 µM
  viability, T/C: 101% [middle of 4 runs]
Compound 10 µM
  viability, T/C: 69.9% [middle of 4 runs]
Curve of compound
  IC50: > 10 µM
